For 29 compounds, IC50 and EC50 results are on record in patent US20230348454A1, “COMPOUNDS AS MODULATORS OF BIS-PHOSPHOGLYCERATE MUTASE FOR THE TREATMENT OF SICKLE CELL DISEASE” (Genzyme Corporation, priority 2020, published 2023).

The structures appear in SMILES notation. Read-outs that look alike come from different tables or passages of the source.

One assay deals with T1, hBPGM (Homo sapiens, UniProt P07738).
T1 sequence (P07738 1-259): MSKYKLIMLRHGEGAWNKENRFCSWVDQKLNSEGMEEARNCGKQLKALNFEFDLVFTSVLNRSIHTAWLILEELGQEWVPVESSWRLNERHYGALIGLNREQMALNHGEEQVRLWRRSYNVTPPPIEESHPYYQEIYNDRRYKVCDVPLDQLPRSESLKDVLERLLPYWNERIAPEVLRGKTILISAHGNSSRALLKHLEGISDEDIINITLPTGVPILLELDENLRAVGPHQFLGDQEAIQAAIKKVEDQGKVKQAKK
The assay can be described thus: BPGM synthase assay. Format: biochemical. In a few lines:
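The enzyme solution held 5 nM BPGM with 0.4 U/mL coupling GAPDH in Tris pH 7.4, 3.23 mM KH2PO4, 1 mM DTT, and compounds were pre-incubated 30 min at RT. Substrate solution (2 mM NAD, 20 μM 3PG, 800 μM GAP) reacted 60 min before a koningic acid quench. NADH fluorescence (360/460) and diaphorase/resazurin-derived resorufin (544/590) were read.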

Assay [1] addresses T2, human Bisphosphoglycerate mutase (hBPGM) (Homo sapiens, UniProt P07738).
T2 sequence (P07738 1-259): T1 sequence (P07738 1-259)
Kind of assay: BPGM phosphatase assay. Format: biochemical. The protocol: The following materials were used in this assay: Tris buffer (50 mM Tris, 0.01% Tween 20, pH 7.4); cyclohexylammonium salt of 2,3-BPG (stock solution of 500 mM in ultapure distilled water; human Bisphosphoglycerate mutase (hBPGM; stock solution of 110 μM in Standard Buffer); 3-Phosphoglyceric acid (3-PG; stock solution of 100 mM in ultrapure distilled water); 384-Well Polystyrene Plates (Fisherbrand™, Catalog No.: 12-566-625); BIOMOL GREEN REAGENT (Enzo life sciences, BML-AK111-0250); and 1 mM DMSO stock of exemplary compounds.
A 3-PG enzyme mix solution (final enzyme concentration 62.5 nM, 3-PG concentration at 50 µM, 14.5 uL) was added to onto a 384-well clear plate. Solutions of the test compounds were then added to the plate and the DMSO content was normalized across the plate. The plate was incubated at RT for 15 min. Next, the substrate 2,3-BPG (5 μL) was added to all the wells, and the plate was sealed and incubated for 24 hr at RT. After incubation, BIOMOL green dye (40 μL) was added to all the wells, the plate was shaken to mix, and the plate was incubated at RT for 20-30 min. Absorbance measurements were recorded at 620 nm.

The next assay concerns human red blood cells. The assay can be described thus: Human cell-based assay (2,3-BPG, ATP by LC/MS). The note with it: Erythrocyte, whole blood suspension, 37° C., 24 h, read-out: hRBC EC50. As for the experimental part:
The following materials were used in this assay: DMSO; Hemox buffer (30 mM TES, 135 mM NaCl, 5 mM KCl, pH 7.4); Inosine (100 mM in hemox buffer); Glucose (1 M in water); human red blood cells; LC/MS Optima grade methanol; LC/MS Optima grade water; and Incubation buffer (30 mM TES, 135 mM NaCl, 5 mM KCl, 50 mM inosine, 20 mM glucose pH 7.4).
Test compounds were loaded onto a 96-well plate (final concentration of DMSO was 1%). 10 mL whole blood was resuspended with an equivalent amount of 2× incubation buffer to make 25% het & 50% plasma solution. The final solution contains 10 mM glucose and 25 mM inosine. The blood suspension (100 uL) was added to the wells of the plate. The plate was covered with an adhesive foil cover and plastic lid, and incubated at 37° C. for 24 h. The samples were extracted through an SPE column and the metabolites (2,3-BPG, ATP) were analyzed by LC/MS.

Setting [2] is: Table 6, read-out: huBPGM: synthase Enzyme IC50.
The mark [3] stands for this setting: Table 6, read-out: huBPGM: phosphatase Enzyme EC50.
The mark [4] stands for this setting: Table 4, read-out: hBPGM Phosphatase EC50.
Setting [5] is: Table 3, read-out: hBPGM Synthase IC50.

With `Cc1nc(COc2ccccn2)sc1-c1csc(-c2cc3nn[nH]c3c(F)c2F)n1` [Example 176], on hBPGM (setting [2]), the IC50 (in general, the midpoint of a concentration-inhibition curve) is 3400 nM. For the same compound, the EC50 – broadly, the concentration needed to bring the measured effect to its halfway point – in assay [1] (setting [3]) amounted to 20 nM.
Consider `Cc1nc(COc2ncccn2)sc1-c1cccc(-c2cc(F)c3[nH]nnc3c2)c1` [Example 177], for which, at hBPGM (setting [2]), the IC50 came to 440 nM. Besides, the EC50 in assay [1] (setting [3]) was 250 nM.
On the same counts, the results for `COC(=O)NCc1nc(C)c(-c2csc(-c3cc(F)c(O)cc3F)n2)s1` [Example 178] are 1700 nM and 1700 nM.
On the same counts, the results for `Cc1nc(CNC(=O)C(C)(C)C)sc1-c1csc(-c2cc3nn[nH]c3cc2F)n1` [Example 181] are 300 nM and 790 nM.
In the case of `Cc1nc(CNC(=O)c2cccnn2)sc1-c1csc(-c2cc(F)c(O)c(F)c2F)n1` [Example 186], the IC50 at hBPGM (setting [2]) came out at 240 nM. The concentration giving a half-maximal response (EC50) in assay [1] (setting [3]) worked out at 350 nM.
For `COC(=O)NCc1nc(C)c(-c2csc(-c3cc(F)c(O)c(F)c3F)n2)s1` [Example 187], in that order: 300 nM and 480 nM.
Consider `Cc1nc(CNC(=O)c2cccnn2)sc1-c1csc(-c2cc(F)c(O)c(F)c2F)n1` [Example 188], for which, on hBPGM (setting [2]), the IC50 was 84 nM. Besides, the EC50 in assay [1] (setting [3]) was found to be 140 nM.
In the case of `COC(=O)NCc1nc(C)c(-c2csc(-c3cc(O)c(C#N)cc3F)c2)s1` [Example 189], the IC50 on hBPGM (setting [2]) came out at 980 nM. Further, the EC50 in assay [1] (setting [3]) was 310 nM.
For `COC(=O)NCc1nc(C)c(-c2csc(-c3ccc(O)c(F)c3F)n2)s1` [Example 190], in that order: 4200 nM and 3300 nM.
For `COC(=O)NCc1nc(C)c(-c2csc(-c3cc(F)c(O)c(F)c3)n2)s1` [Example 191], in that order: 1100 nM and 1600 nM.
For `Cc1nc(COc2ccccn2)sc1-c1csc(-c2cc(F)c(O)c(F)c2)n1` [Example 192], the IC50 at hBPGM (setting [2]) came to 1000 nM. In addition, the EC50 in assay [1] (setting [3]) was found to be 490 nM.
As to `Cc1nc(CNC(=O)c2cccnn2)sc1-c1csc(-c2cc(F)c(O)c(F)c2)c1` [Example 194], at hBPGM (setting [2]), the IC50 was determined as 820 nM. In addition, the EC50 in assay [1] (setting [3]) was 370 nM.
On the same counts, the results for `Cc1nc(CNC(=O)C(C)(C)C)sc1-c1csc(-c2cc(F)c(O)c(F)c2)n1` [Example 196] are 1600 nM and 4900 nM.
Take `Cc1nc(CNC(=O)C(C)(C)C)sc1-c1csc(-c2cc(F)c(O)c(F)c2)c1` [Example 197]: the IC50 on hBPGM (setting [2]) is 3100 nM. In addition, in assay [1] (setting [3]), the EC50 was found to be 400 nM.
On the same counts, the results for `Cc1nc(CNC(=O)c2cccnn2)sc1-c1csc(-c2cc(F)c(O)c(F)c2)n1` [Example 201] are 410 nM and 180 nM.
For `COC(=O)NCc1nc(C)c(-c2csc(-c3ccc(O)c(F)c3)n2)s1` [Example 203], in that order: 6100 nM and 3600 nM.
On the same counts, the results for `COC(=O)NCc1nc(C)c(-c2csc(-c3ccc(-c4nnn[nH]4)cc3)n2)s1` [Example 205] are 340 nM and 440 nM.
With `COC(=O)NCc1nc(C)c(-c2csc(-c3ccc(C(=O)NS(C)(=O)=O)c(O)c3)n2)s1` [Example 206], the IC50 on hBPGM (setting [2]) was determined as 1400 nM. Besides, the EC50 in assay [1] (setting [3]) is 1200 nM.
With `COC(=O)NCc1nc(C)c(-c2csc(-c3ccc(C(=O)Nc4nnn[nH]4)cc3)n2)s1` [Example 207], on hBPGM (setting [2]), the IC50 is 6500 nM. Also, the half-maximal effective concentration (EC50) in assay [1] (setting [3]) was 8200 nM.
For `COC(=O)NCc1nc(C)c(-c2csc(-c3ccc(C(=O)NS(C)(=O)=O)cc3)n2)s1` [Example 208], in that order: 3100 nM and 16000 nM.
With `COC(=O)NCc1nc(C)c(-c2csc(-c3ccc(-c4nnn[nH]4)c(O)c3)n2)s1` [Example 213], the IC50 on hBPGM (setting [2]) was found to be 160 nM. Further, the EC50 in assay [1] (setting [3]) amounted to 60 nM.
For `COC(=O)NCc1nc(C)c(-c2csc(-c3cc(F)c4[nH]nnc4c3)n2)s1` [Example 214], in that order: 180 nM and 96 nM.
As to `Cc1cnc(OCc2nc(C)c(-c3cccc(-c4cc(F)c5nn[nH]c5c4F)n3)s2)nc1` [compound 8], on hBPGM (setting [2]), the IC50 is 17 nM. Also, the EC50 in assay [1] (setting [4]) and in assay [1] (setting [3]) was 40 nM throughout.
Turning to `Cc1nc(COc2ncccn2)sc1-c1csc(-c2cc(F)c(O)c(F)c2F)n1` [compound 10], the IC50 at hBPGM (setting [2]) worked out at 130 nM. Moreover, the EC50 in assay [1] (setting [4]) and in assay [1] (setting [3]) was 310 nM throughout.
With `Cc1nc(COc2ccccn2)sc1-c1csc(-c2cc(F)c(O)c(F)c2F)n1` [compound 11], the IC50 on hBPGM (setting [5]) amounted to 511 nM; on hBPGM (setting [2]) it was 510 nM. Also, the concentration for a half-maximal effect (EC50) in assay [1] (setting [4]) and in assay [1] (setting [3]) was 190 nM in each case.
For the compound `COC(=O)NCc1nc(C)c(-c2csc(-c3ccc(C(=O)NS(=O)(=O)c4ccccc4)cc3)n2)s1` [compound 13], the IC50 at hBPGM (setting [5]) came out at 169 nM; on hBPGM (setting [2]) it was 170 nM. For the same compound, the EC50 in assay [1] (setting [4]) was 55 nM; in assay [1] (setting [3]) it was 32 nM.
For the compound `Cc1nc(COc2ncccn2)sc1-c1cccc(-c2ccc3nn[nH]c3c2)n1` [compound 14], the 50% inhibitory concentration (IC50) on hBPGM (setting [5]) turned out to be 1010 nM. For the same compound, the EC50 in assay [1] (setting [4]) worked out at 570 nM.
As for `Cc1nc(COc2ncccn2)sc1-c1cccc(-c2ccc(-c3noc(=O)[nH]3)cc2)n1` [compound 15], the IC50 on hBPGM (setting [2]) was 140 nM. The EC50 in assay [1] (setting [4]) and in assay [1] (setting [3]) was 170 nM in each case.
Take `COC(=O)NCc1nc(C)c(-c2csc(-c3cc(F)c4[nH]nnc4c3F)n2)s1` [compound 16]: the EC50 with human red blood cells turned out to be 22500 nM.
